US20220257702A1, “STABLE ALBUVIRTIDE COMPOSITIONS” (priority 2019, published 2022)

Legend:
[1] = Stability of lyophilized albuvirtide compositions upon storage at 25° C. (HPLC); format: physicochemical; conditions: in words
Protocol: (§1) The liquid compositions having albuvirtide and PB were then lyophilized and their stability were tested. Part of the organic solvent could be removed using reduced-pressure evaporation. Stability of Albuvirtide-PB upon lyophilization, upon storage at 25° C., 6° C. and −20° C. were tested using HPLC. The lyophilized powder of Albuvirtide-PB were kept at 25° C., 6° C. and −20° C. for certain periods of time while their purities were monitored during such periods by HPLC.

[2] = Stability of lyophilized Albuvirtide-PB upon storage at −20° C. (HPLC); format: physicochemical; conditions: in words, Table 6
Protocol: as §1

[3] = Stability of lyophilized Albuvirtide-PB upon storage at 6° C. (HPLC); format: physicochemical; conditions: in words
Protocol: as §1

[4] = cited from earlier work
HIV-1 = conditions: background statement; cited from earlier work

With albuvirtide the “purity of albuvirtide during storage for 5 days at 25° C.” value ([1]; Table 9) was “barely changed”, the “purity of albuvirtide during storage for 1 month at 25° C.” value ([1]; Table 11) was “barely changed” and the “purity of albuvirtide during storage for 3 month at −20° C.” value [2] was “barely changed”. The “change in purity of albuvirtide during storage for 1 month at 6° C.” value ([3]; Table 5) was “equivalent to that during storage at 25 °C for 5 days”, the “purity of albuvirtide during storage for 2 months at 6° C.” value ([3]; Table 10) was “barely changed” and the in vivo half-life [4] was “long half-life”. For the same substance, the “concentration at which viral entry is inhibited” value (HIV-1) was “low nanomolar concentration” and the “in vitro activity against HIV-1” value (HIV-1) was “in vitro activity against various HIV-1 strains and certain variants that are resistant to enfuvirtide (Fuzeon)”.
